Entries after “also recorded” stand apart in the source; their conditions may differ.
Assays:
DA receptor = assay: Radioligand binding assay: displacement of ^3 H-5,6-dihydroxy-N,N-dipropyl-2-aminotetralin (DA receptor agonist) from homogenates of rat corpus striatum; conditions: for IC50: mean of 3 independent experiments each in triplicate, 10^-11 to 10^-5 M, read-out: IC50 (concentration of drug required to inhibit the specific binding by 50%)
Procedure: The ability of the above compounds to displace the specific binding of ^3 H-5,6-dihydroxy-N,N-dipropyl-2-aminotetralin, a potent DA receptor agonist (Feenstra et al., Life Sci., 32, 1313 (1983)) to homogenates of rat corpus striatum was studied.
The assay was performed essentially according to the method of Leysen and Gommeran J. Neurochem. 36, 201 (1981) for ^3 H-apomorphine binding.
The IC50 is the concentration of drug required to inhibit the specific binding by 50%. The results are presented as the mean values of 3 independent experiments each analyzed in triplicate over the concentration range 10^-11 to 10^-5 M.

dopamine receptor = assay: Dopamine receptor agonist activity, overall conclusion from various tests; conditions: pre- and post-synaptic dopaminergic tests
Procedure: The dopaminergic activity of three analogues (A,B,C) was evaluated in comparison with the indolic structural analogue RU 29717 (Nedelec et al., 1983, J. Med. Chem., 26, 522) in three test systems. Compounds B and C are within the scope of the present invention.

[1] = tested on: presynaptic dopamine receptors; assay: Presynaptic DA activity in the GBL model: counteracting GBL-induced rise in striatal DOPA levels; assay type: in vivo, rat; conditions: for % Reversal vs. GBL group / DOPA (striatal level): 0.2 μmol/kg; for % Reversal vs. GBL group: GBL + NSD 1015 group = 0, NSD 1015 group = 100; for DOPA (striatal level): GBL model, NSD 1015 as decarboxylase inhibitor
Procedure: The ability of a dopamine agonist to counteract the gamma-butyrolactone (GBL) induced rise in DOPA levels in the rat striatum is an indication of its activity at presynaptic dopamine receptors. (Walters and Roth, 1976 Arch. Pharmacol., 296, 5).
The experiments were performed in rats according to the method of Walters and Roth (ibid). The striatal levels of DOPA were determined using the method of Westerink and Mulder (1981 J. Neurochem. 36, 1449). NSD 1015 was used as decarboxylase inhibitor.

[2] = tested on: homovanillic acid, HVA (corpus striatum); assay: Effect on dopamine metabolism: lowering of striatal HVA levels; assay type: in vivo, Female Wistar rats; conditions: for HVA % control / HVA content of corpus striatum: injected, 60 min, mean ± S.E.M.
Procedure: Dopamine agonists are known to produce a lowering of the striatal levels of one of the main metabolites of dopamine, homovanillic acid, HVA, (Feenstra et al., 1983 Arch. Pharmacol., 324, 108).
Female Wistar rats (160-180g) were injected with the drugs under test dissolved in saline and were then decapitated 60 min later. The HVA content of the corpus striatum was determined according to the method of Westerink and Mulder (J. Neurochem., 1981 36, 1449).

[3] = literature background; cited from earlier work
[4] = tested on: adrenergic and serotonergic; conditions: literature background; cited from earlier work
dopaminergic = conditions: literature background; cited from earlier work

SMILES	IC50 (DA receptor)	dopamine agonist activity (general conclusion in words) (dopamine receptor)	% Reversal vs. GBL group [1]	DOPA (striatal level) [1]	potency in GBL model (conclusion in words) ([1]; conclusion)	HVA % control ([2]; 0.2 μmol/kg)	HVA content of corpus striatum ([2]; 0.2 μmol/kg)	HVA % control ([2]; 0.4 μmol/kg)	HVA content of corpus striatum ([2]; 0.4 μmol/kg)	activity on HVA levels (conclusion in words) ([2]; conclusion)	potency in binding assay (conclusion in words) (DA receptor)	emetic activity (in words) [3]	adrenergic and serotonergic activity (in words) [4]	dopaminergic agonist activity (in words) (dopaminergic)
CCCN1CCOC2c3cc(O)ccc3CCC21 (centres unmarked) [Compound C]	2.8 nM	useful levels of dopamine agonist activity; also recorded: as active as the known DA agonist RU 29717	94.6%	2.08 ± 0.12 µg/g	slightly more potent than RU 29717	63.3 ± 4.1 % control	0.62 ± 0.04 µg/g	48.0 ± 1.0 % control	0.47 ± 0.01 µg/g	comparable in activity to RU 29717	–	–	–	–
CN1CCc2cccc3c2[C@H]1Cc1ccc(O)c(O)c1-3 [Apomorphine, reference compound]	3.2 nM	–	–	–	–	–	–	–	–	–	–	–	–	–
CCCN1CCOC2c3cccc(O)c3CCC21 (centres unmarked) [Compound B]	80 nM	useful levels of dopamine agonist activity	17.3%	4.80 ± 0.37 µg/g	–	–	–	98.0 ± 12.2 % control	0.96 ± 0.12 µg/g	–	some activity	–	–	–
CCCN1CCO[C@@H]2c3cccc4[nH]cc(c34)C[C@H]21 [RU 29717, N-PROPYL-9-OXAERGOLINE, reference compound]	3 nM	–	88.4%	2.30 ± 0.16 µg/g	–	51.0 ± 4.1 % control	0.50 ± 0.04 µg/g	46.9 ± 2.0 % control	0.46 ± 0.02 µg/g	–	–	Its activity as an emetic is a significant problem	has adrenergic and serotonergic activity	extremely potent direct acting dopaminergic agonist, comparing favorably with pergolide
CCCN1CCOC2c3ccccc3CCC21 (centres unmarked) [Compound A]	110 nM	significantly less active	4.5%	5.25 ± 0.09 µg/g	–	–	–	91.8 ± 2.0 % control	0.90 ± 0.02 µg/g	–	the least potent	–	–	–

— patent US4540691A, “Dopamine agonists and use thereof” (Nelson Research & Development Co., priority 1984, dated 1985)
